Measured values reported in patent publication US20180319753A1, “MICROBIOCIDAL OXADIAZOLE DERIVATIVES” (SYNGENTA PARTICIPATIONS AG, priority 2015, published 2018).
Several values for one entry are separate records, joined by “and”; a condition that tells them apart may be missing. Equal values may be shown once.

Key:
[1] = system: Glomerella lagenarium (Colletotrichum lagenarium); experiment: Glomerella lagenarium (Colletotrichum lagenarium) liquid culture / cucumber / preventative (anthracnose); format: cell-based; settings: Colletotrichum orbiculare; 20 ppm in the applied formulation; liquid culture in PDB, 24° C.; 3 to 4 days after application; read-out: disease control compared to untreated control (inhibition of growth measured photometrically)
Protocol: Mycelia fragments or conidia suspensions of a fungus prepared either freshly from liquid cultures of the fungus or from cryogenic storage, are directly mixed into nutrient broth. DMSO solutions of the test compound (max. 10 mg/ml) are diluted with 0.025% Tween20 by a factor of 50 and 10 μl of this solution is pipetted into a microtiter plate (96-well format). The nutrient broth containing the fungal spores/mycelia fragments is then added to give an end concentration of the tested compound. The test plates are incubated in the dark at 24° C. and 96% relative humidity. The inhibition of fungal growth is determined photometrically after 2 to 7 days, depending on the pathosystem, and percent antifungal activity relative to the untreated check is calculated.
Conidia of the fungus from cryogenic storage are directly mixed into nutrient broth (PDB—potato dextrose broth). After placing a (DMSO) solution of test compound into a microtiter plate (96-well format), the nutrient broth containing the fungal spores is added. The test plates are incubated at 24° C. and the inhibition of growth is measured photometrically 3 to 4 days after application.
The following compounds at 20 ppm in the applied formulation give at least 80% disease control in this test when compared to untreated control under the same conditions, which show extensive disease development.

[2] = system: Puccinia recondita f. Sp. Tritici; experiment: Puccinia recondita f. sp. tritici / wheat / leaf disc curative (brown rust); format: in vivo; settings: foliar, 200 ppm in the applied formulation, wheat leaf segments cv. Kanzler, applied 1 day after inoculation, assessed 6 to 8 days after application, read-out: disease control compared to untreated control leaf disks
Protocol: (§1) Leaf disks or leaf segments of various plant species are cut from plants grown in a greenhouse. The cut leaf disks or segments are placed in multiwell plates (24-well format) onto water agar. The leaf disks are sprayed with a test solution before (preventative) or after (curative) inoculation. Compounds to be tested are prepared as DMSO solutions (max. 10 mg/ml) which are diluted to the appropriate concentration with 0.025% Tween20 just before spraying. The inoculated leaf disks or segments are incubated under defined conditions (temperature, relative humidity, light, etc.) according to the respective test system. A single evaluation of disease level is carried out 3 to 14 days after inoculation, depending on the pathosystem. Percent disease control relative to the untreated check leaf disks or segments is then calculated.
Wheat leaf segments cv. Kanzler are placed on agar in multiwell plates (24-well format). The leaf segments are then inoculated with a spore suspension of the fungus. Plates were stored in darkness at 19° C. and 75% relative humidity. The formulated test compound diluted in water was applied 1 day after inoculation. The leaf segments were incubated at 19° C. and 75% relative humidity under a light regime of 12 hours light/12 hours darkness in a climate cabinet and the activity of a compound was assessed as percent disease control compared to untreated when an appropriate level of disease damage appears in untreated check leaf segments (6 to 8 days after application).
(§2) The following compounds at 200 ppm in the applied formulation give at least 80% disease control in this test when compared to untreated control leaf disks under the same conditions, which show extensive disease development.

[3] = system: Puccinia recondita f. Sp. Tritici; experiment: Puccinia recondita f. sp. tritici / wheat / leaf disc preventative (brown rust); format: in vivo; settings: foliar, 200 ppm in the applied formulation, wheat leaf segments cv. Kanzler, inoculated 1 day after application, assessed 7 to 9 days after application, read-out: disease control compared to untreated control leaf disks
Protocol: as §1, with “calculated. Wheat leaf segments cv. Kanzler were placed on agar in multiwell plates (24-well format) and sprayed with the formulated test compound diluted in water. The leaf disks were inoculated with a spore suspension of the fungus 1 day after application. The inoculated leaf segments were incubated at 19° C. and 75% relative humidity (rh) under a light regime of 12 hours light/12 hours darkness in a climate cabinet and the activity of a compound was assessed as percent disease control compared to untreated when an appropriate level of disease damage appears in untreated check leaf segments (7 to 9 days after application). The following compounds at 200 ppm in the applied formulation give at least 80% disease control in this test when compared to untreated control leaf disks under the same conditions, which show extensive disease development.” for “calculated.”

Phakopsora pachyrhizi = Phakopsora pachyrhizi / soybean / leaf disc preventative (Asian soybean rust); format: in vivo; settings: foliar, 200 ppm in the applied formulation, soybean leaf disks, inoculated one day after application, assessed 12 to 14 days after application, read-out: disease control compared to untreated control leaf disks
Protocol: as §1
Soybean leaf disks are placed on water agar in multiwell plates (24-well format) and sprayed with the formulated test compound diluted in water. One day after application leaf discs are inoculated by spraying a spore suspension on the lower leaf surface. After an incubation period in a climate cabinet of 24-36 hours in darkness at 20° C. and 75% rh leaf disc are kept at 20° C. with 12 h light/day and 75% rh. The activity of a compound is assessed as percent disease control compared to untreated when an appropriate level of disease damage appears in untreated check leaf disks (12 to 14 days after application).
as §2

Row | SMILES | melting point | inhibition at 20 ppm [1] | pest or weed control at 200 ppm [2] | pest or weed control at 200 ppm [3] | pest or weed control at 200 ppm (Phakopsora pachyrhizi)
1 | FC(F)(F)c1nc(-c2ccc(Sc3ccccc3)cc2)no1 [Compound 1.1, 3-(4-phenylsulfanylphenyl)-5-(trifluoromethyl)-1,2,4-oxadiazole] | 59 to 62 °C | ≥ 80% | ≥ 80% | ≥ 80% | ≥ 80%
2 | FC(F)(F)c1nc(-c2ccc(SCCc3ccccc3)cc2)no1 [Compound 1.5, 3-[4-(2-phenylethylsulfanyl)phenyl]-5-(trifluoromethyl)-1,2,4-oxadiazole] | – | ≥ 80% | ≥ 80% | ≥ 80% | ≥ 80%
3 | FC(F)(F)c1nc(-c2ccc(Sc3ccccc3)nc2)no1 [Compound 1.7, 3-(6-phenylsulfanyl-3-pyridyl)-5-(trifluoromethyl)-1,2,4-oxadiazole] | 124 to 129 °C | ≥ 80% | ≥ 80% | – | ≥ 80%
4 | Fc1cccc(F)c1Sc1ccc(-c2noc(C(F)(F)F)n2)cc1 [Compound 1.12, 3-[4-(2,6-difluorophenyl)sulfanylphenyl]-5-(trifluoromethyl)-1,2,4-oxadiazole] | 75 to 85 °C | ≥ 80% | ≥ 80% | – | ≥ 80%
5 | Fc1ccccc1Sc1ccc(-c2noc(C(F)(F)F)n2)cc1 [Compound 1.14, 3-[4-(2-fluorophenyl)sulfanylphenyl]-5-(trifluoromethyl)-1,2,4-oxadiazole] | 35 to 38 °C | – | ≥ 80% | ≥ 80% | ≥ 80%
6 | Fc1ccccc1SCc1ccc(-c2noc(C(F)(F)F)n2)cc1 [Compound 1.15, 3-[4-[(2-fluorophenyl)sulfanylmethyl]phenyl]-5-(trifluoromethyl)-1,2,4-oxadiazole] | 56 to 61 °C | – | ≥ 80% | – | ≥ 80%
7 | FC(F)(F)c1nc(-c2ccc(CSc3ccccc3)nc2)no1 [Compound 1.23, 3-[6-(phenylsulfanylmethyl)-3-pyridyl]-5-(trifluoromethyl)-1,2,4-oxadiazole] | 71 to 78 °C | ≥ 80% | ≥ 80% | ≥ 80% | –
8 | CC(C)(C)[S+]([O-])c1ccc(-c2noc(C(F)(F)F)n2)cc1 (stereo not drawn) [Compound 2.19, 3-(4-tert-butylsulfinylphenyl)-5-(trifluoromethyl)-1,2,4-oxadiazole] | – | ≥ 80% | ≥ 80% | ≥ 80% | ≥ 80%
9 | [O-][S+](c1ccc(-c2noc(C(F)(F)F)n2)cc1)C1CCCC1 (stereo not drawn) [Compound 2.23, 3-(4-cyclopentylsulfinylphenyl)-5-(trifluoromethyl)-1,2,4-oxadiazole] | – | ≥ 80% | ≥ 80% | ≥ 80% | ≥ 80%

Further lines, with some results ahead:

Row | melting point | SMILES | inhibition at 20 ppm [1] | pest or weed control at 200 ppm [2] | pest or weed control at 200 ppm [3] | pest or weed control at 200 ppm (Phakopsora pachyrhizi)
10 | 94 to 99 °C | [O-][S+](c1ccc(F)cc1)c1ccc(-c2noc(C(F)(F)F)n2)cc1 (stereo not drawn) [Compound 2.13, 3-[4-(4-fluorophenyl)sulfinylphenyl]-5-(trifluoromethyl)-1,2,4-oxadiazole] | – | ≥ 80% | ≥ 80% | ≥ 80%
11 | 105 to 115 °C | COc1ccccc1[S+]([O-])c1ccc(-c2noc(C(F)(F)F)n2)cc1 (stereo not drawn) [Compound 2.15, 3-[4-(2-methoxyphenyl)sulfinyl-phenyl]-5-(trifluoromethyl)-1,2,4-oxadiazole] | – | ≥ 80% | ≥ 80% | ≥ 80%
12 | 38 to 43 °C | CCC(C)C[S+]([O-])c1ccc(-c2noc(C(F)(F)F)n2)cc1 (stereo not drawn) [Compound 2.22, 3-[4-(2-methylbutylsulfinyl)phenyl]-5-(trifluoromethyl)-1,2,4-oxadiazole] | ≥ 80% | ≥ 80% | – | ≥ 80%
13 | 100 to 103 °C | Cc1ccccc1[S+]([O-])c1ccc(-c2noc(C(F)(F)F)n2)cc1 (stereo not drawn) [Compound 2.24, 3-[4-(o-tolylsulfinyl)phenyl]-5-(trifluoromethyl)-1,2,4-oxadiazole] | ≥ 80% | ≥ 80% | ≥ 80% | –
14 | 92 to 95 °C | [O-][S+](c1ccc(-c2noc(C(F)(F)F)n2)cn1)c1ccccc1F (stereo not drawn) [Compound 2.26, 3-[6-(2-fluorophenyl)sulfinyl-3-pyridyl]-5-(trifluoromethyl)-1,2,4-oxadiazole] | ≥ 80% | ≥ 80% | ≥ 80% | –
15 | 120 to 125 °C | [O-][S+](Cc1c(F)cc(-c2noc(C(F)(F)F)n2)cc1F)c1ccccc1 (stereo not drawn) [Compound 2.32, 3-[4-(benzenesulfinylmethyl)-3,5-difluoro-phenyl]-5-(trifluoromethyl)-1,2,4-oxadiazole] | ≥ 80% | ≥ 80% | – | ≥ 80%
16 | 108 to 116 °C | COc1ccc(S(=O)(=O)c2ccc(-c3noc(C(F)(F)F)n3)cc2)cc1 [Compound 3.2, 3-[4-(4-methoxyphenyl)sulfonylphenyl]-5-(trifluoromethyl)-1,2,4-oxadiazole] | ≥ 80% | – | ≥ 80% | ≥ 80%
17 | 124 to 127 °C and 124 to 129 °C | O=S(=O)(c1ccccc1)c1ccc(-c2noc(C(F)(F)F)n2)cn1 [Compound 3.7, 3-[6-(benzenesulfonyl)-3-pyridyl]-5-(trifluoromethyl)-1,2,4-oxadiazole] | ≥ 80% | – | ≥ 80% | ≥ 80%
18 | 136 to 143 °C | O=S(=O)(c1ccc(-c2noc(C(F)(F)F)n2)cc1)c1cccc(F)c1 [Compound 3.14, 3-[4-(3-fluorophenyl)sulfonylphenyl]-5-(trifluoromethyl)-1,2,4-oxadiazole] | ≥ 80% | – | ≥ 80% | ≥ 80%
